Source: patent publication US20120270237A9, “METHODS FOR THE IDENTIFICATION OF KINASE INTERACTING MOLECULES AND FOR THE PURIFICATION OF KINASE PROTEINS” (Cellzone AG, priority 2009, published 2012)

What was measured:
Assay in all cases: Kinobeads competition binding, HL60 cell lysate
Settings in all cases: 10 μM free compound
[1] = target: T1, CLK1 (Homo sapiens, UniProt P49759)
T1 construct: endogenous in cells; host or cells: HL60 cells
Method: (§1) To one aliquot of cell lysate 10 μM of the free compound (FIG. 3, CZC31326) was added and allowed to bind to proteins in the lysate. Then the affinity matrix with the immobilized compound (Example 1) was added to capture proteins that were not interacting with the previously added free compound. Beads were separated from the lysate and bead bound proteins were eluted in SDS sample buffer and subsequently separated by SDS-Polyacrylamide gel electrophoresis (FIG. 4). Suitable gel bands were cut out and subjected to in-gel proteolytic digestion with trypsin. The second lysate aliquot was processed identically, however no free compound was added (DMSO solvent control). Peptides originating from samples 1 and 2 were labeled with iTRAQ reagents (iTRAQ 114 and iTRAQ 117) and the combined samples were analyzed with a nano-flow liquid chromatography system coupled online to a tandem mass spectrometer (LC-MS/MS) experiment followed by iTRAQ reporter ion quantification in the MS/MS spectra (Ross et al., 2004. Mol. Cell. Proteomics 3(12):1154-1169). Further experimental protocols can be found in WO2006/134056 and a previous publication (Bantscheff et al., 2007. Nature Biotechnology 25, 1035-1044). Sepharose-beads with the immobilized compound (100 μl beads per pull-down experiment) were equilibrated in lysis buffer and incubated with a cell lysate sample containing 50 mg of protein on an end-over-end shaker (Roto Shake Genie, Scientific Industries Inc.) for 2 hours at 4° C. Beads were collected, transferred to Mobicol-columns (MoBiTech 10055) and washed with 10 ml lysis buffer containing 0.4% NP40 detergent, followed by 5 ml lysis buffer containing 0.2% detergent. To elute bound proteins, 60 μl 2×SDS sample buffer was added to the column. The column was incubated for 30 minutes at 50° C. and the eluate was transferred to a siliconized microfuge tube by centrifugation. Proteins were then alkylated with 108 mM iodoacetamid. Proteins were then separated by SDS-Polyacrylamide electrophoresis (SDS-PAGE). The peptide extracts of samples treated with 10 μM of free compound (CZC31326) and the solvent control (0.5% DMSO) were treated with different variants of the isobaric tagging reagent (iTRAQ Reagents Multiplex Kit, part number 4352135, Applied Biosystems, Foster City, Calif., USA). The iTRAQ reagents are a set of multiplexed, amine-specific, stable isotope reagents that can label peptides on amino groups in up to four different biological samples enabling simultaneous identification and quantitation of peptides. The iTRAQ reagents were used according to instructions provided by the manufacturer. The samples were resuspended in 10 μl 50 mM TEAB solution, pH 8.5 and 10 μl ethanol were added. The iTRAQ reagent was dissolved in 120 μl ethanol and 10 μl of reagent solution were added to the sample. The labeling reaction was performed at room temperature for one hour on a horizontal shaker and stopped by adding 5 μl of 100 mM TEAB and 100 mM glycine in water. The two labeled sampled were then combined, dried in a vacuum centrifuge and resuspended in 10 μl of 0.1% formic acid in water. Relative protein quantitation was performed using peak areas of iTRAQ reporter ion signals essentially as described in an earlier publication (Bantscheff et al., 2007. Nature Biotechnology 25, 1035-1044).

[2] = target: T2, TEC (Homo sapiens, UniProt P42680)
T2 sequence (P42680 1-631): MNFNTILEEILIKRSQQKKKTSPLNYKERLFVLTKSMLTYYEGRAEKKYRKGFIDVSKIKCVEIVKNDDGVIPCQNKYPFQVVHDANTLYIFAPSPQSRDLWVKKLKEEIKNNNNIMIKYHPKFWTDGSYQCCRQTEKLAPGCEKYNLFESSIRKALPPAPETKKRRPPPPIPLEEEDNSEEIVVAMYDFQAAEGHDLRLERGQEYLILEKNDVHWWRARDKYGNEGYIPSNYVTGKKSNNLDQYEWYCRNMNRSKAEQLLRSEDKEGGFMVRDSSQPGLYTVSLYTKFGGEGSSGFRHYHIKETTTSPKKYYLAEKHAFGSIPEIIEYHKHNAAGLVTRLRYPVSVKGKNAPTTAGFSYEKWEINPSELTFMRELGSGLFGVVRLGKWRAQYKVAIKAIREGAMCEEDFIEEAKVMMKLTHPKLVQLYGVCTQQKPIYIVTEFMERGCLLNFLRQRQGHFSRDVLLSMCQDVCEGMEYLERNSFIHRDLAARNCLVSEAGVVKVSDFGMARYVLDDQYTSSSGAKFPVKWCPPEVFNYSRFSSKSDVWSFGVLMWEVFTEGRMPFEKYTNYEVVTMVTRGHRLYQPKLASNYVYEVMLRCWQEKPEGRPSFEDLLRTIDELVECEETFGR
Method: as §1

[3] = target: T3, MST4 (Homo sapiens, UniProt Q9P289)
T3 construct: endogenous in cells; host or cells: HL60
Method: as §1

[4] = target: T4, EphB6 (Homo sapiens, UniProt O15197)
T4 construct: endogenous in cells; host or cells: HL60 (DSMZ ACC3)
Method: as §1

[5] = target: T5, HIPK1 (Homo sapiens, UniProt Q86Z02)
T5 construct: endogenous in cells; host or cells: HL60
Method: as §1

[6] = target: T6, RET (Homo sapiens, UniProt P07949)
T6 construct: endogenous in cells; host or cells: HL60 cells
Method: as §1

[7] = target: T7, ACK (Homo sapiens, UniProt Q07912)
T7 construct: endogenous in cells; host or cells: HL60 cells
Method: as §1

[8] = target: T8, CDK10 (Homo sapiens, UniProt Q15131)
T8 construct: endogenous in cells; host or cells: HL60 cells
Method: as §1

[9] = target: T9, MAP2K5 (Homo sapiens, UniProt Q13163)
T9 sequence (Q13163 1-448): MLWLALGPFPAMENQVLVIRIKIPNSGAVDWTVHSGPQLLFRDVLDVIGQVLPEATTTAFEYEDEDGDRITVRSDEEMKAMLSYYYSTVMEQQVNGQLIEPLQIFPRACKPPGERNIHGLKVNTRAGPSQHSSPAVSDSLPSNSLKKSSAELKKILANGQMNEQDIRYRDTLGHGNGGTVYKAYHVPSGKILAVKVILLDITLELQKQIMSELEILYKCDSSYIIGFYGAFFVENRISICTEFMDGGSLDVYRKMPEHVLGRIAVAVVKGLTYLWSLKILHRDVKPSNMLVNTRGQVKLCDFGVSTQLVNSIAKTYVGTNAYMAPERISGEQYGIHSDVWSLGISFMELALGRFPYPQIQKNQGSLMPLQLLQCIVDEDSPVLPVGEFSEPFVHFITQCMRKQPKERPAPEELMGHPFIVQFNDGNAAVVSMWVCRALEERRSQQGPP
Method: as §1

[10] = target: T10, CRK7 (Homo sapiens, UniProt Q9NYV4)
T10 construct: endogenous in cells; host or cells: HL60 (DSMZ ACC3)
Method: as §1

T8 sequence (Q15131 whole entry): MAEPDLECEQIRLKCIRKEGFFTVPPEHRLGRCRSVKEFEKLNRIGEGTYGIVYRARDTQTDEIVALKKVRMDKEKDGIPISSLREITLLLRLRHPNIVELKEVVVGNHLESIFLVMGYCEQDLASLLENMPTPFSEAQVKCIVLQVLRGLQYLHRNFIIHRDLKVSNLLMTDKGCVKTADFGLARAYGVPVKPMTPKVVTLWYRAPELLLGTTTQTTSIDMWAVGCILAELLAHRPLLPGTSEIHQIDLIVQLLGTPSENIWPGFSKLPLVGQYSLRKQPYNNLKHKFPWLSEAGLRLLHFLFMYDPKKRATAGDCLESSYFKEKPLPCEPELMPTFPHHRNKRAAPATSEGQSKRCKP
T10 sequence (Q9NYV4 whole entry): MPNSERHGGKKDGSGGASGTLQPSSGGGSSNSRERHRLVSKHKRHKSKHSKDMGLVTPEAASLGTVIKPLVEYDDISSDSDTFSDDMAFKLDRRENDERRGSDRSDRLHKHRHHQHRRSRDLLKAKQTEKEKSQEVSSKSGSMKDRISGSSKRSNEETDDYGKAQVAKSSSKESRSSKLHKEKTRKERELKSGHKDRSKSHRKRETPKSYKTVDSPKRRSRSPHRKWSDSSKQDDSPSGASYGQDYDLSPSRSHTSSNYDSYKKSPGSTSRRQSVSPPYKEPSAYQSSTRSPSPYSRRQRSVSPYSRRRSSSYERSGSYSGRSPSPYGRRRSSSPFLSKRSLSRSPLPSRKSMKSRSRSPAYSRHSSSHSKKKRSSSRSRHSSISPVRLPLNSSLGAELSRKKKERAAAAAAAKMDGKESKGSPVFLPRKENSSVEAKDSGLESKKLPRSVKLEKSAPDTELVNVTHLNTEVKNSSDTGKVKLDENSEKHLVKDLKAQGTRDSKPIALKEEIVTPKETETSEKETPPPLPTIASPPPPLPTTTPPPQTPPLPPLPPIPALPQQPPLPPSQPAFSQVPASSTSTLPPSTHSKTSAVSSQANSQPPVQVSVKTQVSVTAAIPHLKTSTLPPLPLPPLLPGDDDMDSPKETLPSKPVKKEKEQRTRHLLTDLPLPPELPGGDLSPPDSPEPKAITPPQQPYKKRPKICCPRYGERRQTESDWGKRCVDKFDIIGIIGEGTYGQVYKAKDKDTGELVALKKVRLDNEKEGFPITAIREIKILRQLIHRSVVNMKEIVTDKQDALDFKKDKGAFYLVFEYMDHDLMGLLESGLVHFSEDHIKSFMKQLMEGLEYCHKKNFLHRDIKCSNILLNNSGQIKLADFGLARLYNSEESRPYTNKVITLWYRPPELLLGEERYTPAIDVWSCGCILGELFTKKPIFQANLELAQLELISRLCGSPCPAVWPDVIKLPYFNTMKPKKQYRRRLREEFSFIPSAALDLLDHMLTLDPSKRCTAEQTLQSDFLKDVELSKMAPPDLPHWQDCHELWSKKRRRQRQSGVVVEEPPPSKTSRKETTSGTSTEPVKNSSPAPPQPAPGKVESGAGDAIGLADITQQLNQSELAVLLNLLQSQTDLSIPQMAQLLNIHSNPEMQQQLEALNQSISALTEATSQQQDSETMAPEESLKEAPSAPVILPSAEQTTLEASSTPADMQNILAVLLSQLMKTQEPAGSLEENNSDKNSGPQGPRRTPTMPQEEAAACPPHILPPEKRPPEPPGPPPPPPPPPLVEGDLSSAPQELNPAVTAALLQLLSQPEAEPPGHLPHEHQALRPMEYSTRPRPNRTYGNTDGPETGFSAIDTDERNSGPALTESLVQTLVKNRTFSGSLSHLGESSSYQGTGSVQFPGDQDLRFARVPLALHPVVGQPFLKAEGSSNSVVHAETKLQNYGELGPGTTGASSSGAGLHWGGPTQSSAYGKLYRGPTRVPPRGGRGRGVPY
T10 sequence (O75909 whole entry partner): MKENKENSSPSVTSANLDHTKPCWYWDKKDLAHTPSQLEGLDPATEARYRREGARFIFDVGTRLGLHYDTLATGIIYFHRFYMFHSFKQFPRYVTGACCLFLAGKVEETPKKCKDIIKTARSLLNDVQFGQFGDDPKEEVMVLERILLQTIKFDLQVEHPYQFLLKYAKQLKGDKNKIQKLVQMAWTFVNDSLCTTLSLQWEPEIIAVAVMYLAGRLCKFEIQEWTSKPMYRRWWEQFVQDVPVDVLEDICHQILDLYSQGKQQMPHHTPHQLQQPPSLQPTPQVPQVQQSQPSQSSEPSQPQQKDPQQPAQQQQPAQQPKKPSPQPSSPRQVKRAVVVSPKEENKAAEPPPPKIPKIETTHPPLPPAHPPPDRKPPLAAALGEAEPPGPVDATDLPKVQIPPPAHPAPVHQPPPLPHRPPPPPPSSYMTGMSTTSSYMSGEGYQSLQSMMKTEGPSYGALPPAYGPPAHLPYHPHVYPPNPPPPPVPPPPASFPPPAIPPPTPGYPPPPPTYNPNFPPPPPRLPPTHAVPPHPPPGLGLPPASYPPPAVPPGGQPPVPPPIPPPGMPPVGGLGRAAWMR
T1 sequence (P49759 whole entry): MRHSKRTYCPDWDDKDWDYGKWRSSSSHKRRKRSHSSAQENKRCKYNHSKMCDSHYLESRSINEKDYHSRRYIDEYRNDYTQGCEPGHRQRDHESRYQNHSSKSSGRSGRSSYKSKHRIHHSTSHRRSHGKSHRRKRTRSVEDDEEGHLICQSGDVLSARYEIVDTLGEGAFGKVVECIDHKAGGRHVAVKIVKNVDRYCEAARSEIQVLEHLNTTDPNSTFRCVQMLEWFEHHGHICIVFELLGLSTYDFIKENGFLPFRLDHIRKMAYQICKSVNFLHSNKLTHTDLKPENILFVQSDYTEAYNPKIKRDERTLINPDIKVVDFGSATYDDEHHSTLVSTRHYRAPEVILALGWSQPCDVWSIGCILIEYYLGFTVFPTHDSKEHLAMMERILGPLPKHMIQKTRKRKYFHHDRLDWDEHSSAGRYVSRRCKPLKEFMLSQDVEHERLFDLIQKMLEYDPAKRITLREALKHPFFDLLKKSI
T7 sequence (Q07912 whole entry): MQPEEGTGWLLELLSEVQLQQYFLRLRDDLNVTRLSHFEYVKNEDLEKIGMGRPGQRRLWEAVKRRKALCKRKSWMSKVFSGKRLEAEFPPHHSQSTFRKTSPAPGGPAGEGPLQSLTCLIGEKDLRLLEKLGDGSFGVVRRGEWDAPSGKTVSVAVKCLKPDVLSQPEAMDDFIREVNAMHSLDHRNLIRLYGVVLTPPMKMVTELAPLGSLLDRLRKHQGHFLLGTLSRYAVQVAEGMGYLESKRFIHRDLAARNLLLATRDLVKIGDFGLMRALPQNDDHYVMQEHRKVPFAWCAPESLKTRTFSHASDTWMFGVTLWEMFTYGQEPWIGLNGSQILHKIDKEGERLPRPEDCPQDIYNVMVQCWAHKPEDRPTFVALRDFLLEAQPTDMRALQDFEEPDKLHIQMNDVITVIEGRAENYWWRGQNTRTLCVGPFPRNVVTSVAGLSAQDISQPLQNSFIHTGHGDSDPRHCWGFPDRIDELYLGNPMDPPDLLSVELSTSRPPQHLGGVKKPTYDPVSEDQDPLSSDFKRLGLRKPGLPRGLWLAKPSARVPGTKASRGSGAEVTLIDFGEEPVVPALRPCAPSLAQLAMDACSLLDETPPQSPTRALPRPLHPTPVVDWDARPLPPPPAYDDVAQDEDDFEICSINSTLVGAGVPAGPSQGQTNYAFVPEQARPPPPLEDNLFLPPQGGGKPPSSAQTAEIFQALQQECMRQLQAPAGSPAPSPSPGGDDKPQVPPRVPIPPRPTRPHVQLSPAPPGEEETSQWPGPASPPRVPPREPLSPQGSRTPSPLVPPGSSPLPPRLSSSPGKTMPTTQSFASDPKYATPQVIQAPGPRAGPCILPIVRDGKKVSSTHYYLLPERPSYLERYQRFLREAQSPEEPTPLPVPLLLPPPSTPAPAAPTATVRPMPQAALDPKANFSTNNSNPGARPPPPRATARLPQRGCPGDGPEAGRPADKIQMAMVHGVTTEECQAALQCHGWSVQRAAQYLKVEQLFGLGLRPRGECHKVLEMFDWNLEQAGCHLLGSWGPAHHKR
T4 sequence (O15197 32-1021): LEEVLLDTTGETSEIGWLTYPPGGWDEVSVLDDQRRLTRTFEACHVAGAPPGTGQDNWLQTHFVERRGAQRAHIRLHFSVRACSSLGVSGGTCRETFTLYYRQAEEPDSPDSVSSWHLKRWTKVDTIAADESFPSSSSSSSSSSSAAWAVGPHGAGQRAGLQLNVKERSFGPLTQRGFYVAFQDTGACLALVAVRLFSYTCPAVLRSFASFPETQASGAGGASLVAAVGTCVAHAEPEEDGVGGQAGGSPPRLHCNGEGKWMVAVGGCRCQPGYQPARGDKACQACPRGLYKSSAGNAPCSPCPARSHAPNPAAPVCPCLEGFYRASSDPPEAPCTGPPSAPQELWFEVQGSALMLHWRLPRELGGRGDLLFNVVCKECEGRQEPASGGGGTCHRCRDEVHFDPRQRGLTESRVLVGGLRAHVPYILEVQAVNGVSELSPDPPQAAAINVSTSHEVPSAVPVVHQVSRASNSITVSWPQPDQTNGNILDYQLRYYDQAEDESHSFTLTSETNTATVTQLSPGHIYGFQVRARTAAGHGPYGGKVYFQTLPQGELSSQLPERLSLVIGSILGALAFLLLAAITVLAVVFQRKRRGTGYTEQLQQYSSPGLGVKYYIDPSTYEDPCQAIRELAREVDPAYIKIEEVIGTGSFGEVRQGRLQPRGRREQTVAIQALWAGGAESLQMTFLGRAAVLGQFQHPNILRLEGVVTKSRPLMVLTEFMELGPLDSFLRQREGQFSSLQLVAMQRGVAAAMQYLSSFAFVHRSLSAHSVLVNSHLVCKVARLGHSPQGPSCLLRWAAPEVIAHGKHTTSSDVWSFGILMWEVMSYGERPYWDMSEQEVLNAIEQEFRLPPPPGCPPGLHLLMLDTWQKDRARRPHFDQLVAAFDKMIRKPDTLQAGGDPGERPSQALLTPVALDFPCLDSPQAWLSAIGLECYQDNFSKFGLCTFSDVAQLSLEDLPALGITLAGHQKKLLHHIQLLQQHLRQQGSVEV

SMILES: CS(=O)(=O)Nc1ccccc1Nc1nc(Nc2cccc(OCCN)c2)ncc1Cl [CZC31326, N-(2-(2-(3-(2-aminoethoxy)phenylamino)-5-chloropyrimidin-4-ylamino)phenyl)methanesulfonamide]
- inhibition at 10 µM [1]: 97.4%
- inhibition at 10 µM [2]: 97%
- inhibition at 10 µM [3]: 96.1%
- inhibition at 10 µM [4]: 93.6%
- inhibition at 10 µM [5]: 97.1%
- inhibition at 10 µM [6]: 97.1%
- inhibition at 10 µM [7]: 93.6%
- inhibition at 10 µM [8]: 96.7%
- inhibition at 10 µM [9]: 93.1%
- Competition % [10]: 92.1%
